The record followed here is ChEMBL document CHEMBL1201862, “PubChem BioAssay data set” (2004).

Some test systems named below: SF-295; OVCAR-4; Malme-3M; NCI/ADR-RES; OVCAR-8; NCI-H522; UACC-257; SNB-75; RPMI-8226; HCC 2998; HOP-62; K562; CCRF-CEM; RXF 393; NCI-H460; T47D; MDA-MB-435; KM12; MOLT-4; NCI-H226.
Assay in all cases: NCI-60 cell line screen, 48 h

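Dose response: 5 concentrations. Exposure: 48 h. Format: 96-well plates. Endpoint: linear interpolation; highest concentration if not reached. Abbreviation: GI50, concentration required for 50% inhibition of growth.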 Activity calls are given as the source filed them. Cut-off read from the data, not from the text of the source: active = GI50 up to about 1.1 µM and inactive = higher.

Turning to `CN(C)C(=O)O/N=C1/C(=C2/C(=O)Nc3ccccc32)Nc2ccccc21`, the GI50 in the assay with SF-295 is 19.1 µM (inactive); in the assay on OVCAR-4, 6.81 µM (inactive); in the assay with Malme-3M it was 4.25 µM (inactive); in the assay with NCI/ADR-RES it was 21.9 µM (inactive); in the assay with OVCAR-8, 9.75 µM (inactive); in the assay on NCI-H522 it was 8.75 µM (inactive). Further, the GI50 in the assay with UACC-257 was 27.2 µM (inactive); in the assay on SNB-75, 2.45 µM (inactive); with RPMI-8226 it was > 100 µM (inactive); in the assay on HCC 2998, 38.5 µM (inactive); in the assay with HOP-62 it was 14.1 µM (inactive); with K562, 27.7 µM (inactive). Moreover, the GI50 is > 100 µM (inactive) in the assay with CCRF-CEM; 1.57 µM (inactive) in the assay on RXF 393; 7.96 µM (inactive) in the assay with NCI-H460; 2.76 µM (inactive) in the assay on T47D; 50.7 µM (inactive) in the assay on MDA-MB-435; 0.304 µM (active) in the assay on KM12. The GI50 in the assay on MOLT-4 is 10.4 µM (inactive).

On to `CC(C)(C)OC(=O)NC(Cc1ccc(OCc2ccccc2)cn1)C(=O)NCc1ccccc1` (centres undefined), for which the GI50 with SF-295 was 21.2 µM (inactive); with Malme-3M, 22.8 µM (inactive); with NCI/ADR-RES, 16.7 µM (inactive); with OVCAR-8, 26.3 µM (inactive); in the assay on NCI-H522 it was 17.1 µM (inactive); in the assay with UACC-257 it was 16.9 µM (inactive). The GI50 is 27.1 µM (inactive) in the assay with SNB-75; 16.3 µM (inactive) in the assay with RPMI-8226; 34.2 µM (inactive) in the assay with HCC 2998; 23.3 µM (inactive) in the assay with HOP-62; 22.1 µM (inactive) in the assay with K562; 12.4 µM (inactive) in the assay with CCRF-CEM. The GI50 in the assay on RXF 393 was 27.9 µM (inactive); in the assay on NCI-H460, 22.7 µM (inactive); with T47D it was 16.7 µM (inactive); with MDA-MB-435, 20.1 µM (inactive); in the assay with KM12, 29.7 µM (inactive); with MOLT-4, 13.2 µM (inactive).

For `[O-]c1c[n+](CC[n+]2cc([O-])on2)no1`, the GI50 in the assay on SF-295, in the assay with OVCAR-4, with Malme-3M, with NCI/ADR-RES, in the assay with OVCAR-8 and in the assay on NCI-H522 was > 100 µM (inactive) in each case. The GI50 in the assay on UACC-257, with SNB-75, in the assay with RPMI-8226, in the assay with HCC 2998, with HOP-62 and with K562 was > 100 µM (inactive) each time. Also, the GI50 in the assay with CCRF-CEM, in the assay with RXF 393, with NCI-H460, in the assay with T47D, in the assay with MDA-MB-435 and in the assay with KM12 was > 100 µM (inactive) in each case. Further, the GI50 with MOLT-4 is > 100 µM (inactive).

Regarding `O=C(Cn1cc(F)c(=O)[nH]c1=O)C12CC3CC(CC(C3)C1)C2`, the GI50 in the assay with SF-295, with OVCAR-4, with Malme-3M, with NCI/ADR-RES, in the assay on OVCAR-8 and in the assay on NCI-H522 was > 100 µM (inactive) each time. In addition, the GI50 in the assay on UACC-257, in the assay on SNB-75, in the assay on RPMI-8226, with HCC 2998, with HOP-62 and in the assay with K562 was > 100 µM (inactive) each time. For the same compound, the GI50 with CCRF-CEM, with RXF 393, in the assay on NCI-H460, with T47D, in the assay with MDA-MB-435 and in the assay on KM12 was > 100 µM (inactive) throughout. The GI50 with MOLT-4 is > 100 µM (inactive).

Turning to `COc1ccc(N2C(=O)C3ON(C(C(N)=O)c4ccccc4)C(c4cc5ccccc5c5ccccc45)C3C2=O)cc1` (centres undefined), the GI50 in the assay on SF-295 is > 50 µM (inactive); with OVCAR-4 it was 25.9 µM (inactive); in the assay with Malme-3M, > 50 µM (inactive); with NCI/ADR-RES, > 50 µM (inactive); with OVCAR-8 it was > 50 µM (inactive); with NCI-H522 it was 29.5 µM (inactive). The GI50 in the assay on UACC-257 was 22.7 µM (inactive); in the assay with SNB-75, 40.1 µM (inactive); with HOP-62 it was > 50 µM (inactive); in the assay on K562, 22.9 µM (inactive); in the assay on CCRF-CEM, 12.7 µM (inactive); in the assay with RXF 393, 21.8 µM (inactive). The GI50 in the assay on NCI-H460 is > 50 µM (inactive); in the assay with T47D it was 28.6 µM (inactive); in the assay on MDA-MB-435 it was 18.4 µM (inactive); with KM12, 32.3 µM (inactive); in the assay with NCI-H226, 26.3 µM (inactive); in the assay with MOLT-4, 14.5 µM (inactive).

Take `c1cc(Sc2nc(Sc3ccncc3)nc(Sc3ccncc3)n2)ccn1`: the GI50 with SF-295, in the assay on OVCAR-4, in the assay with Malme-3M, in the assay on NCI/ADR-RES, in the assay with OVCAR-8 and with NCI-H522 was > 100 µM (inactive) in each case. The GI50 in the assay with UACC-257, in the assay with RPMI-8226, in the assay with HCC 2998, in the assay with HOP-62, in the assay on K562 and in the assay on CCRF-CEM was > 100 µM (inactive) throughout. Moreover, the GI50 with RXF 393, with NCI-H460, in the assay on T47D, in the assay on MDA-MB-435, in the assay with KM12 and with NCI-H226 was > 100 µM (inactive) each time. Moreover, the GI50 in the assay on MOLT-4 was > 100 µM (inactive).

Regarding `CCN(CC)CCCNc1nncc2c(C)c3[nH]c4ccccc4c3cc12`, the GI50 with SF-295 is 2.74 µM (inactive); in the assay on OVCAR-4 it was 0.514 µM (active); in the assay with Malme-3M, 1.04 µM (active); with NCI/ADR-RES, 89.5 µM (inactive); in the assay with OVCAR-8, 0.685 µM (active); in the assay with NCI-H522, 0.16 µM (active). Besides, the GI50 in the assay on UACC-257 is 1.24 µM (inactive); with SNB-75 it was 1.41 µM (inactive); in the assay on HCC 2998, 0.802 µM (active); in the assay on HOP-62, 0.378 µM (active); in the assay with CCRF-CEM it was 0.02 µM (active); in the assay with RXF 393, 1.63 µM (inactive). The GI50 is 0.281 µM (active) with NCI-H460; 0.705 µM (active) in the assay with T47D; 1.25 µM (inactive) in the assay with MDA-MB-435; 0.667 µM (active) in the assay on KM12; 0.255 µM (active) with NCI-H226; 0.0241 µM (active) with MOLT-4.

In the case of `O=C1Nc2ccccc2S/C1=C\c1cccc(C(F)(F)F)c1`, the GI50 in the assay with SF-295, with OVCAR-4, with Malme-3M, in the assay with NCI/ADR-RES, in the assay on OVCAR-8 and in the assay with NCI-H522 was > 100 µM (inactive) each time. The GI50 in the assay on UACC-257, in the assay with SNB-75, with RPMI-8226, with HOP-62, in the assay with K562 and in the assay on CCRF-CEM was > 100 µM (inactive) in each case. The GI50 in the assay on RXF 393 was > 100 µM (inactive); with NCI-H460, > 100 µM (inactive); in the assay on T47D, 82.4 µM (inactive); in the assay with MDA-MB-435, > 100 µM (inactive); with KM12, > 100 µM (inactive); in the assay on NCI-H226 it was > 100 µM (inactive). In addition, the GI50 in the assay with MOLT-4 was > 100 µM (inactive).

In the case of `CC1=CC(=O)N(n2c(C)n[nH]c2=O)C1=O`, the GI50 with SF-295, in the assay on OVCAR-4, in the assay on Malme-3M, in the assay on NCI/ADR-RES, with OVCAR-8 and in the assay with NCI-H522 was > 100 µM (inactive) throughout. Moreover, the GI50 with UACC-257, in the assay on RPMI-8226, with HCC 2998, in the assay with K562, with CCRF-CEM and in the assay on RXF 393 was > 100 µM (inactive) throughout. Also, the GI50 with NCI-H460, in the assay with T47D, in the assay on MDA-MB-435, in the assay on KM12, in the assay with NCI-H226 and with MOLT-4 was > 100 µM (inactive) in each case.

For the compound `CC(C)(C)OC(=O)CCC1NC(=O)[C@@H]2Cc3c([nH]c4ccccc34)C(c3ccccc3)N2C1=O` (some centres undefined), the GI50 with SF-295 was 19.7 µM (inactive); in the assay with OVCAR-4, 32.7 µM (inactive); in the assay with Malme-3M, 16.4 µM (inactive); in the assay with NCI/ADR-RES, 35.5 µM (inactive); with OVCAR-8 it was 37.2 µM (inactive); with NCI-H522, 25.2 µM (inactive). Further, the GI50 is 21.7 µM (inactive) in the assay on UACC-257; 36.9 µM (inactive) in the assay on RPMI-8226; 24.2 µM (inactive) in the assay with HOP-62; > 100 µM (inactive) with K562; 18.2 µM (inactive) in the assay on RXF 393; 27.8 µM (inactive) in the assay on T47D. The GI50 with MDA-MB-435 was 21.7 µM (inactive); in the assay on KM12, 24.9 µM (inactive); in the assay on NCI-H226, 30.4 µM (inactive); in the assay with MOLT-4, > 100 µM (inactive).

On to `COc1ccc2nc(-c3ccc(O)cc3)sc2c1`, for which the GI50 was 19.8 µM (inactive) with SF-295; 28.5 µM (inactive) in the assay on OVCAR-4; 23.5 µM (inactive) with Malme-3M; 29.8 µM (inactive) in the assay with NCI/ADR-RES; 20.7 µM (inactive) in the assay with OVCAR-8; 16.8 µM (inactive) in the assay on NCI-H522. Also, the GI50 with UACC-257 was 21.6 µM (inactive); in the assay with RPMI-8226 it was < 0.01 µM (active); in the assay with K562 it was 36.2 µM (inactive); in the assay with RXF 393 it was 20.1 µM (inactive); in the assay with NCI-H460, 39.3 µM (inactive); in the assay with T47D, 17.5 µM (inactive). The GI50 is 25.2 µM (inactive) in the assay on MDA-MB-435, 26.5 µM (inactive) in the assay on KM12, 23.5 µM (inactive) in the assay on NCI-H226 and 27.9 µM (inactive) with MOLT-4.
